# Source: US11008325B2, “Inhibitors of cancer invasion, attachment, and/or metastasis” (VIRGINIA COMMONWEALTH UNIVERSITY, priority 2016, dated 2021)
# Read-outs that look alike come from different tables or passages of the source.
# Columns and labels:
# [1] = tested on: Dishevelled PDZ/Fz7 Wnt receptor; details: Xenopus embryos; cited from earlier work
# [2] = biological target: T1, MDA-9 PDZ12 tandem domain (PDZ1) (Homo sapiens, UniProt O00560); test: NMR [15N,1H] HSQC chemical shift change and titration binding; details: for Binding affinity ranking: chemical shift change (DPPM) of backbone amide of residue 147, 50 μM PDZ12, compound at 1:1 molar ratio
# T1 construct: the MDA-9/Syntenin construct used for the screen contains both PDZ domains; made in house
# T1 sequence (O00560 110-274): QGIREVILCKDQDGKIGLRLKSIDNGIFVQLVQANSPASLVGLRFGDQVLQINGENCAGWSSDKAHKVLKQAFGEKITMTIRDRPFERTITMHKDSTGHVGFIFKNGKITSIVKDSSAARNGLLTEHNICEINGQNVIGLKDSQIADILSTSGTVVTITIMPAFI
# Protocol: FIGS. 4A-4E. FIG. 4A. […] FIG. 4B. Superposition of 2D [^15N, ^1H]-HSQC spectra of 50 μM MDA-9 PDZ12 tandem domain in the absence and presence of 350 μM 113B7. FIG. 4C. Binding curve and representative spectra for the titration of 113B7 against MDA-9 PDZ12 tandem domain. Top: Zoom of box region in FIG. 4B after titrating 113B7 into Mda9 PDZ, tandem domain. […] Bottom: Titration curve of 113B7 for residue A147. […] FIG. 4D. […] FIG. 4E. Docked structure of 113B7 in complex with MDA-9 PDZ tandem domain (PDB: 1W9E). The pose was obtained with GOLD. Two PDZ domains of MDA-9 are labeled.
# NMR based screening of an house assembled fragment library of about 5,000 compounds using [^15N,^1H] […] The proposed docked structure of PDZ1i in the PDZ1 domain and interdomain of MDA-9/Syntenin is shown in FIGS. 4A-4E and FIG. 5, while the chemical structure of PDZ1i is also shown in FIGS. 4A-4E and FIG. 5.
# In all binding assays, the MDA-9/Syntenin construct used for the screen contains both PDZ domains. Constructs uniformly labeled with ^15N and ^13C or ^13C-Met selectively labeled are used for binding, mapping and structural studies. These same proteins are used for ITC binding studies.
# [3] = migration (SAR, Table 4); format: cell-based
# [4] = tested on: human cancer cell lines; details: cited from earlier work
# [5] = tested on: mouse xenograft model; details: in vivo; cited from earlier work
# [6] = NMR titration following backbone amide of residue 147, read-out: Kd values
Molecule,Binding affinity ranking [2],"Kd [2, 6] [µM]",also measured
GSKTLQSWRRYH [Fz7 peptide],–,–,Wnt3A-induced canonical Wnt signaling [1]: peptide attenuates Wnt3A-induced
O=C(Nc1ccc(O)cc1)c1nc2[nH]c3c(c(=O)n2n1)CCC3 [112E12],1 (1 for DPPM 0.00-0.02),1610,–
O=C(Nc1cc(Cl)c(O)c(Cl)c1)c1nc2[nH]c3c(c(=O)n2n1)CCC3 [112F11],5 (5 for DPPM 0.08-0.1),–,–
CC(NC(=O)C(OC(=O)C(C)NC(=O)OC(C)(C)C)C(C)C)C(=O)OC(C(=O)O)C(C)C (stereo not shown) [NSC-668036],–,–,"Wnt3A-induced canonical Wnt signaling [1]: In Xenopus embryos, NSC-668036 inhibits the canonical Wnt signaling induced by Wnt3A (34)."
SGKLKLMTTV [Dapper peptide],–,–,Wnt3A-induced canonical Wnt signaling [1]: peptide attenuates Wnt3A-induced
Cc1cc(=O)n2nc(C(=O)Nc3ccc(N)cc3)nc2[nH]1 [112E7],1 (1 for DPPM 0.00-0.02),944,–
Cc1cc(=O)n2nc(NCc3ccccc3)nc2[nH]1 [cmpd1],2 (2 for DPPM 0.02-0.04),–,–
Cc1cc(NC(=O)c2nc3[nH]c4c(c(=O)n3n2)CCC4)c(C)cc1NC(=O)Cc1ccc(-c2ccccc2)cc1 [113B9],N.B.,–,–
Cc1cc(=O)n2nc(SCc3ccccc3)nc2[nH]1 [cmpd4],4 (4 for DPPM 0.06-0.08),–,–
O=C(Nc1ccc(O)c(F)c1)c1nc2[nH]c3c(c(=O)n2n1)CCC3 [112F12],2 (2 for DPPM 0.02-0.04),166,–
Cc1cc(NC(=O)c2nc3[nH]c4c(c(=O)n3n2)CCC4)c(C)cc1NC(=O)CCc1nnc(-c2cccc(C(F)(F)F)c2)o1 [112H9],2 (2 for DPPM 0.02-0.04),38.3,"Kd ([2]; estimated by NMR titration in 2D HSQC experiments (Table 4), read-out: Kd): 38 µM; % migr. [3]: 24%"
CCCCC(O)C1Nc2cc(C)c(C(=O)O)cc2C1CCc1ccccc1 (stereo not shown),–,–,apoptosis [4]: Induction of apoptosis in human cancer cell lines; tumor growth [5]: tumor growth inhibition in a mouse xenograft model
Cc1cc(=O)n2nc(C(=O)Nc3ccc(O)c(F)c3)nc2[nH]1 [112G2],4 (4 for DPPM 0.06-0.08),147,–
Cc1cc(=O)n2nc(C(=O)Nc3ccc4c(c3)OCCO4)nc2[nH]1 [cmpd7],2 (2 for DPPM 0.02-0.04),–,–
COc1cccc(NC(=O)c2nc3[nH]c(C)cc(=O)n3n2)c1 [cmpd8],3 (3 for DPPM 0.04-0.06),–,–
Cc1cc(=O)n2nc(C(=O)Nc3cc(Cl)c(N)cc3Cl)nc2[nH]1 [112G4],6 (6 for DPPM above 0.1),34.3,"Kd ([2]; fragment hits, FIG. 55B, read-out: Kd): ~300 µM"
O=c1[nH]c2sc3c(c2c2ncnn12)CCCC3 [cmpd6],1 (1 for DPPM 0.00-0.02),–,–
Cc1cc(O)n2nc(C(=O)Nc3ccc(O)cc3)nc2n1 [112F1],1 (1 for DPPM 0.00-0.02),–,–
CCCc1cc(=O)n2nc(COc3ccccc3)nc2[nH]1 [cmpd14],1 (1 for DPPM 0.00-0.02),–,–
Cc1[nH]c2nc(C(=O)NCc3ccccc3)nn2c(=O)c1C [cmpd5],2 (2 for DPPM 0.02-0.04),–,–
O=C(Nc1ccc(O)c(Cl)c1)c1nc2[nH]c3c(c(=O)n2n1)CCC3 [112G3],–,119,–
Cc1cc(=O)n2nc(C(=O)Nc3cc(Cl)c(O)c(Cl)c3)nc2[nH]1 [112G1],6 (6 for DPPM above 0.1),57.3,–
Cc1cc(=O)n2nc(CCc3ccccc3)nc2[nH]1 [cmpd2],3 (3 for DPPM 0.04-0.06),–,–
Nc1ccc(NC(=O)c2nc3[nH]c4c(c(=O)n3n2)CCC4)cc1 [112G11],2 (2 for DPPM 0.02-0.04),263,–

# Further lines, with some results ahead:
Binding affinity ranking [2],"Kd [2, 6] [µM]",Molecule,also measured
1 (1 for DPPM 0.00-0.02),–,COc1ccc(Br)c(-c2nnc(CCC(=O)Nc3cc(C)c(NC(=O)c4nc5[nH]c6c(c(=O)n5n4)CCC6)cc3C)o2)c1 [113B12],–
3 (3 for DPPM 0.04-0.06),–,Cc1cc(=O)n2nc(C(=O)Nc3ccc4c(c3)OCO4)nc2[nH]1 [cmpd9],–
1 (1 for DPPM 0.00-0.02),–,O=c1c2c([nH]c3nc(NCc4cccs4)nn13)CCC2 [cmpd3],–
5 (5 for DPPM 0.08-0.1),171,O=c1c2c([nH]c3nc(COc4ccccc4)nn13)CCC2 [cmpd11],–
3 (3 for DPPM 0.04-0.06),–,Cc1cc(NC(=O)c2nc3[nH]c4c(c(=O)n3n2)CCC4)c(C)cc1NC(=O)CCc1nnc(-c2ccsc2)o1 [113B11],–
3 (3 for DPPM 0.04-0.06),–,O=c1c2c([nH]c3nc(CCc4ccccc4)nn13)CCC2 [cmpd13],–
4 (4 for DPPM 0.06-0.08),197,Cc1cc(=O)n2nc(COc3ccccc3)nc2[nH]1 [30A9],–
4 (4 for DPPM 0.06-0.08),151,Cc1cc(=O)n2nc(C(=O)Nc3cccc(Cl)c3)nc2[nH]1 [cmpd10],–
4 (4 for DPPM 0.06-0.08),–,O=C(Nc1ccc(O)c(Cl)c1)c1nc2[nH]c3c(c(=O)n2n1)CCC3 [112F10],–
2 (2 for DPPM 0.02-0.04),245,Cc1cc(=O)n2nc(C(=O)Nc3ccc(O)cc3)nc2[nH]1 [112D11],–
5 (5 for DPPM 0.08-0.1),151,Cc1c(C)c(NC(=O)c2nc3[nH]c4c(c(=O)n3n2)CCC4)c(C)c(C)c1N [113B8],–
